Source: US20230277534A1 (Plexxikon Inc., priority 2011, published 2023)

Columns and labels:
B-Raf V600E = B-Raf V600E (Homo sapiens (Human), UniProt P15056, V600E); test: B-Raf V600E kinase biochemical activity assay (AlphaScreen, biotin-MEK1 substrate); conditions: 100 μM ATP
Procedure: Assays for biochemical and cell based activity are known in the art, for example, as described in PCT publication WO 2007/002433, the disclosure of which is hereby incorporated by reference as it relates to such assays. For example, the biochemical activity IC50 values are determined with respect to inhibition of B-Raf V600E kinase activity or p-Erk kinase activity, where inhibition of phosphorylation of a peptide substrate is measured as a function of compound concentration. Compounds to be tested are diluted in dimethyl sulfoxide to a concentration of 0.1 mM. These are serially diluted 15 μL into 30 μL of dimethyl sulfoxide seven times in 96 well plates for a total of 8 dilution points, and for each dilution point 1 μL is added to a well of an assay plate. Plates are prepared such that each well in a 384 well plate contains 1 μL of compound in 10 μL volume with 0.1 ng Raf enzyme (i.e. any of B-Raf, c-Raf-1 or B-Raf V600E, Upstate Biotechnology or prepared by methods known to one of skill in the art), 50 mM HEPES, pH 7.0, 50 mM NaCl, 2 mM MgCl2, 1 mM MnCl2, 0.01% Tween-20, 1 mM DTT, and 100 nM biotin-MEK1 as substrate. The reaction is started with addition of 10 μL of 200 μM ATP (i.e. final 100 μM ATP). After incubation of the kinase reaction for 45 minutes at room temperature, 5 μL/well of Stop Solution is added (25 mM Hepes pH 7.5, 100 mM EDTA, 0.01% BSA with donor beads (Streptavidin coated beads, Perkin Elmer), acceptor beads (Protein A coated, Perkin Elmer), and anti phosphor MEK1/2 antibody (CellSignal), each at final concentration 10 μg/mL). The plates are incubated for 3 hours at room temperature and read on Envision reader (Perkin Elmer). Phosphorylation of Mek1 results in binding of the anti-phosphor-MEK1/2antibody and association of the donor and acceptor beads such that signal correlates with kinase activity. The signal vs. compound concentration is used to determine the IC50.

[1] = system: COLO205 colon adenocarcinoma cells (B-Raf V600E mutation); test: COLO205 cell growth inhibition (ATPlite); assay type: cell-based; conditions: Homo sapiens, COLO 205, 72 h, 3 days
Procedure: Compounds are assessed in a variety of cell based assays.
On day 1, cells are counted, then centrifuged in a conical tube for 5 minutes at 1000 rpm.
On day 2, compound at a maximum concentration of 5 mM is serially diluted 1:3 (e.g. 10 μL with 30 μL dimethyl sulfoxide) for a total of 8 point titration with DMSO as a control. A 1 μL aliquot of each dilution point and control is added to 249 μL growth media and 50 μL is added to a well containing cells, providing 10 μM compound at the maximum concentration point. The cells are incubated for 3 days at 37° C. in 5% CO2.
ATPlite is added 25 μL to each well, shake for 2 minutes, and the cells are incubated at room temperature for 10 minutes, then luminescence is read on Safire reader. The measured luminescence correlates directly with cell number, such that the reading as a function of compound concentration is used to determine the IC50 value.

Chain of B-Raf V600E (P15056 whole entry V600E): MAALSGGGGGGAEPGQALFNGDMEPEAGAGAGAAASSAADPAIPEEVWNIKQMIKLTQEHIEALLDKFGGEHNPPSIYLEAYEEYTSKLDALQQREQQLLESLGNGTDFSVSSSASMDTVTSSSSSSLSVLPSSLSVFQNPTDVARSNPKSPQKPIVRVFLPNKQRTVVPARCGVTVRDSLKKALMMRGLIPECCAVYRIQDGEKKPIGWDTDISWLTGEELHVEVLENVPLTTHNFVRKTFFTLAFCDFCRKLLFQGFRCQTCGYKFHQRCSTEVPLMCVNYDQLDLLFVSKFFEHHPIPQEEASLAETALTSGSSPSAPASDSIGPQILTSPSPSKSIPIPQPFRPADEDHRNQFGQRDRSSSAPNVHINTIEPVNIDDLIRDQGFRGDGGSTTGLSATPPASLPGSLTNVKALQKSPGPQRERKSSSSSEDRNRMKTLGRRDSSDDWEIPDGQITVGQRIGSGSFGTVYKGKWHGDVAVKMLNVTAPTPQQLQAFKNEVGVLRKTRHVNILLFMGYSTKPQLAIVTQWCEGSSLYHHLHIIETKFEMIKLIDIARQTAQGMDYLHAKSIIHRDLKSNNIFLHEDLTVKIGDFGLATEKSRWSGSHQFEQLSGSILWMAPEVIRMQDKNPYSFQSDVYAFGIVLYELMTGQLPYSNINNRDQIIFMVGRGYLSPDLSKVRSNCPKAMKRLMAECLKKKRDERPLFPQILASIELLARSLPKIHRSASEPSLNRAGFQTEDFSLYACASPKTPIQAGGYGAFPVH

| Structure (SMILES) | IC50 (B-Raf V600E) [µM] | IC50 [1] [µM] |
| --- | --- | --- |
| CN(C)S(=O)(=O)Nc1cccc(C(=O)c2c[nH]c3ncc(I)cc23)c1F [Compound P-0110, 3-[3-(dimethylsulfamoylamino)-2-fluoro-benzoyl]-5-iodo-1H-pyrrolo[2,3-b]pyridine] | < 0.1 | < 1 |
| CCN(C)S(=O)(=O)Nc1cccc(C(=O)c2c[nH]c3ncc(-c4ccc(C#N)nc4)cc23)c1F [Compound P-0102, 5-(6-cyano-3-pyridyl)-3-[3-[[ethyl(methyl)sulfamoyl]amino]-2-fluoro-benzoyl]-1H-pyrrolo[2,3-b]pyridine] | < 0.1 | > 1 |
| CC(C)CN(C)S(=O)(=O)Nc1cccc(C(=O)c2c[nH]c3ncc(I)cc23)c1F [Compound P-0070, 3-[2-fluoro-3-[[isobutyl(methyl)sulfamoyl]amino]benzoyl]-5-iodo-1H-pyrrolo[2,3-b]pyridine] |  | > 1 |
| CCN(C)S(=O)(=O)Nc1ccc(F)c(C(=O)c2c[nH]c3ncc(-c4ccc(C5(C#N)CC5)cc4)cc23)c1F [Compound P-0239, 5-[4-(1-cyanocyclopropyl)phenyl]-3-[3-[[ethyl(methyl)sulfamoyl]amino]-2,6-difluoro-benzoyl]-1H-pyrrolo[2,3-b]pyridine] |  | < 1 |
| CN(C)S(=O)(=O)Nc1ccc(F)c(C(=O)c2c[nH]c3ncc(-c4ccc(C5(C#N)CC5)cc4)cc23)c1F [Compound P-0237, 5-[4-(1-cyanocyclopropyl)phenyl]-3-[3-(dimethylsulfamoylamino)-2,6-difluoro-benzoyl]-1H-pyrrolo[2,3-b]pyridine] |  | < 1 |
| CCN(C)S(=O)(=O)Nc1cccc(C(=O)c2c[nH]c3ncc(-c4cnc(N5CCCC5)nc4)cc23)c1F [Compound P-0108, 3-[3-1[[ethyl(methyl)sulfamoyl]amino]-2-fluoro-benzoyl]-5-(2-pyrrolidin-1-ylpyrimidin-5-yl)-1H-pyrrolo[2,3-b]pyridine] | < 0.1 |  |
| CCNS(=O)(=O)Nc1cccc(C(=O)c2c[nH]c3ncc(-c4cnc(OC)nc4)cc23)c1F [Compound P-0068, [3-(ethylsulfamoylamino)-2-fluoro-phenyl]-[5-(2-methoxypyrimidin-5-yl)-1H-pyrrolo[2,3-b]pyridin-3-yl]methanone] | < 0.1 |  |
| CCNS(=O)(=O)Nc1cccc(C(=O)c2c[nH]c3ncc(I)cc23)c1F [Compound P-0069, [3-(ethylsulfamoylamino)-2-fluoro-phenyl]-(5-iodo-1H-pyrrolo[2,3-b]pyridin-3-yl)methanone] | < 0.1 |  |
| O=C(c1cccc(NS(=O)(=O)N2CCCC2)c1F)c1c[nH]c2ncc(-c3cnc(NC4CC4)nc3)cc12 [Compound P-0232, N-[3-[5-[2-(cyclopropylamino)pyrimidin-5-yl]-1H-pyrrolo[2,3-b]pyridine-3-carbonyl]-2-fluoro-phenyl]pyrrolidine-1-sulfonamide] | < 0.1 |  |
| O=C(c1c(F)ccc(NS(=O)(=O)N2CCCC2)c1F)c1c[nH]c2ncc(-c3ccnc(OC4CCC4)c3)cc12 [Compound P-0286, N-[3-[5-[2-(cyclobutoxy)-4-pyridyl]-1H-pyrrolo[2,3-b]pyridine-3-carbonyl]-2,4-difluoro-phenyl]pyrrolidine-1-sulfonamide] | < 0.1 |  |
| CCC(C)S(=O)(=O)Nc1cccc(C(=O)c2c[nH]c3ncc(-c4cnc(C5CC5)nc4)cc23)c1F (stereo not shown) [Compound P-0228, N-[3-[5-(2-cyclopropylpyrimidin-5-yl)-1H-pyrrolo[2,3-b]pyridine-3-carbonyl]-2-fluoro-phenyl]butane-2-sulfonamide] |  | < 1 |

Other lines, results leading:

| IC50 (B-Raf V600E) [µM] | IC50 [1] [µM] | Structure (SMILES) |
| --- | --- | --- |
| < 0.1 | < 1 | CCN(C)S(=O)(=O)Nc1ccc(F)c(C(=O)c2c[nH]c3ncc(-c4cnc(N5CCCC5)nc4)cc23)c1F [Compound P-0293, 3-[3-[[ethyl(methyl)sulfamoyl]amino]-2,6-difluoro-benzoyl]-5-(2-pyrrolidin-1-ylpyrimidin-5-yl)-1H-pyrrolo[2,3-b]pyridine] |
| < 0.1 | < 1 | CCN(C)S(=O)(=O)Nc1ccc(F)c(C(=O)c2c[nH]c3ncc(-c4ccc(-c5nnc(NC)s5)cc4)cc23)c1F [Compound P-0305, 2-[4-[3-[3-[[ethyl(methyl)sulfamoyl]amino]-2,6-difluoro-benzoyl]-1H-pyrrolo[2,3-b]pyridin-5-yl]phenyl]-5-(methylamino)-1,3,4-thiadiazole] |
| < 0.1 | < 1 | O=C(c1c(F)ccc(NS(=O)(=O)N2CCCC2)c1F)c1c[nH]c2ncc(-c3cnc(N4CCC4)nc3)cc12 [Compound P-0269, N-[3-[5-[2-(azetidin-1-yl)pyrimidin-5-yl]-1H-pyrrolo[2,3-b]pyridine-3-carbonyl]-2,4-difluoro-phenyl]pyrrolidine-1-sulfonamide] |
|  | < 1 | O=C(c1c(F)ccc(NS(=O)(=O)N2CCCC2)c1F)c1c[nH]c2ncc(-c3ccncc3)cc12 [Compound P-0273, N-[2,4-difluoro-3-[5-(4-pyridyl)-1H-pyrrolo[2,3-b]pyridine-3-carbonyl]phenyl]pyrrolidine-1-sulfonamide] |
| < 0.1 | < 1 | CCNS(=O)(=O)Nc1ccc(F)c(C(=O)c2c[nH]c3ncc(-c4cnc(C5CC5)nc4)cc23)c1F [Compound P-0335, [5-(2-cyclopropylpyrimidin-5-yl)-1H-pyrrolo[2,3-b]pyridin-3-yl]-[3-(ethylsulfamoylamino)-2,6-difluoro-phenyl]methanone] |
| < 0.1 | > 1 | CCN(C)S(=O)(=O)Nc1ccc(F)c(C(=O)c2c[nH]c3ncc(-c4ccc(N5CCCC5)cc4)cc23)c1F [Compound P-0303, 3-[3-[[ethyl(methyl)sulfamoyl]amino]-2,6-difluoro-benzoyl]-5-(4-pyrrolidin-1-ylphenyl)-1H-pyrrolo[2,3-b]pyridine] |
|  | < 1 | Nc1nccc(-c2cnc3[nH]cc(C(=O)c4c(F)ccc(NS(=O)(=O)N5CCCC5)c4F)c3c2)n1 [Compound P-0280, N-[3-[5-(2-aminopyrimidin-4-yl)-1H-pyrrolo[2,3-b]pyridine-3-carbonyl]-2,4-difluoro-phenyl]pyrrolidine-1-sulfonamide] |
|  | < 1 | N#CC1(c2ccc(-c3cnc4[nH]cc(C(=O)c5c(F)ccc(NS(=O)(=O)N6CCCC6)c5F)c4c3)cc2)CC1 [Compound P-0248, N-[3-[5-[4-(1-cyanocyclopropyl)phenyl]-1H-pyrrolo[2,3-b]pyridine-3-carbonyl]-2,4-difluoro-phenyl]pyrrolidine-1-sulfonamide] |
| > 0.1 |  | CC(=O)N(C)C1CCN(S(=O)(=O)Nc2cccc(C(=O)c3c[nH]c4ncc(-c5cnc(C6CC6)nc5)cc34)c2F)C1 (stereo not shown) [Compound P-0267, N-[1-[[3-[5-(2-cyclopropylpyrimidin-5-yl)-1H-pyrrolo[2,3-b]pyridine-3-carbonyl]-2-fluoro-phenyl]sulfamoyl]pyrrolidin-3-yl]-N-methyl-acetamide] |
| > 0.1 |  | CCOC(=O)C1CCCN1S(=O)(=O)Nc1cccc(C(=O)c2c[nH]c3ncc(-c4cnc(OC)nc4)cc23)c1F (stereo not shown) [Compound P-0257, ethyl 1-[[2-fluoro-3-[5-(2-methoxypyrimidin-5-yl)-1H-pyrrolo[2,3-b]pyridine-3-carbonyl]phenyl]sulfamoyl]pyrrolidine-2-carboxylate] |
|  | < 1 | CCN(C)S(=O)(=O)Nc1ccc(F)c(C(=O)c2c[nH]c3ncc(-c4cnc(N(C)C)nc4)cc23)c1F [Compound P-0292, 5-[2-(dimethylamino)pyrimidin-5-yl]-3-[3-[[ethyl(methyl)sulfamoyl]amino]-2,6-difluoro-benzoyl]-1H-pyrrolo[2,3-b]pyridine] |
|  | < 1 | O=C(c1c(F)ccc(NS(=O)(=O)N2CCCC2)c1F)c1c[nH]c2ncc(-c3ccnc(N4CCOCC4)c3)cc12 [Compound P-0284, N-[2,4-difluoro-3-[5-(2-morpholino-4-pyridyl)-1H-pyrrolo[2,3-b]pyridine-3-carbonyl]phenyl]pyrrolidine-1-sulfonamide] |
| < 0.1 |  | CCOc1cnc(-c2cnc3[nH]cc(C(=O)c4c(F)ccc(NS(=O)(=O)N(C)C)c4F)c3c2)cn1 [Compound P-0244, 3-[3-(dimethylsulfamoylamino)-2,6-difluoro-benzoyl]-5-(5-ethoxypyrazin-2-yl)-1H-pyrrolo[2,3-b]pyridine] |
